The results in this text go back to patent US20260285853A1, “COMPOUNDS AND METHODS FOR MODULATING SPLICING” (REMIX THERAPEUTICS INC., priority 2023, published 2026).

Common to all, as to type: cell-based
The test system of experiment [1] is HTT mRNA. Kind of experiment: Splicing RT-qPCR assay (THP), Table 2A. The following applies: Table 2A, THP; for AC50: HTT alternative junction (AJ) mRNA, read-out: HTT AJ (AC50, increase in alternative junction mRNA); for IC50: HTT canonical junction (CJ) mRNA, read-out: HTT CJ (IC50, decrease in canonical junction mRNA).
In experiment [2] the test system is SH-SY5Y (human neuroblastoma) cells. The experiment in a line: Cell viability, Cell Titer Glo 2.0 assay. Particulars: read-out: Viability SHSY5Y.3 GI50. The gist of the method: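 SH-SY5Y neuroblastoma cells are exposed to test compounds for 72 hours at 37 °C and 5% CO2, with final DMSO held at 0.1%. Cell viability is then measured with the CellTiter-Glo 2.0 assay.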
For orientation: ATP-based viability assays read luminescence as a measure of living cells.

Experiment [3] concerns MYB mRNA. Kind of experiment: Gene panel canonical junction qPCR assay, decrease in CJ mRNA, Table 3. The following applies: decrease in CJ mRNA levels, canonical junction qPCR, gene panel. The gist of the method:
(§1)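 A673 cells were plated, left to adhere for 24 h, then dosed; K562 cells were plated in 96- or 384-well format and dosed directly. Both were incubated 24 h at 37 °C with an 11-point 3-fold series (top 10 uM final). Canonical junction mRNA was then read by cDNA synthesis and qPCR.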

The subject of experiment [4] is HTT mRNA. The description is as above. The following applies: decrease in CJ mRNA levels, canonical junction qPCR, gene panel. The method in brief:
as §1
On the technique in general: Real-time PCR tracks product formation cycle by cycle.

The subject of experiment [5] is MYB mRNA. The experiment in a line: Splicing RT-qPCR assay (THP), Table 2A. Particulars: Table 2A, THP; for AC50: MYB alternative junction (AJ) mRNA, read-out: MYB AJ (AC50, increase in alternative junction mRNA); for IC50: MYB canonical junction (CJ) mRNA, read-out: MYB CJ (IC50, decrease in canonical junction mRNA).

Consider `Cc1cn2cc(NC(=O)c3cc(F)c(N4CCC(NC5CC5)CC4)c4cn(C)nc34)cc(F)c2n1` [Compound 713, 4-[4-(cyclopropylamino)-1-piperidyl]-5-fluoro-N-(8-fluoro-2-methyl-imidazo[1,2-a]pyridin-6-yl)-2-methyl-indazole-7-carboxamide], for which the AC50 was over 10000 nM in experiment [1] and 100 to 1000 nM in experiment [5]. The IC50 in experiment [1] is over 10000 nM; in experiment [3] it was 100 to 1000 nM; in experiment [4] it was over 10000 nM; in experiment [5], 100 to 1000 nM. In addition, the GI50 in experiment [2] fell in the range of 100 to 1000 nM.
For the compound `COc1nc2c(C(=O)Nc3ccc4nn(C)cc4n3)ccc(N3C[C@H](C)N[C@@H](C)C3)c2s1` [Compound 714, 7-[(3S,5S)-3,5-dimethylpiperazin-1-yl]-2-methoxy-N-(2-methylpyrazolo[4,3-b]pyridin-5-yl)-1,3-benzothiazole-4-carboxamide], the values for the half-maximal activity concentration (AC50) in experiment [1] and in experiment [5] were 100 to 1000 nM and under 100 nM, respectively. The IC50 in experiment [1] was 100 to 1000 nM; in experiment [3], under 100 nM; in experiment [4], 100 to 1000 nM; in experiment [5], under 100 nM. Besides, the GI50 in experiment [2] was under 100 nM.
For `COc1nc2c(C(=O)Nc3cccc4c3cnn4C)ccc(N3C[C@H](C)N[C@@H](C)C3)c2s1` [Compound 715], the AC50 in experiment [1] and in experiment [5] was over 10000 nM in each case. Also, the IC50 in experiment [1], in experiment [3], in experiment [4] and in experiment [5] was over 10000 nM each time. In experiment [2], the GI50 lay within 100 to 1000 nM.
With `COc1nc2c(C(=O)Nc3ccc4c(c3)OCCO4)ccc(N3C[C@H](C)N[C@@H](C)C3)c2s1` [Compound 716, N-(2,3-dihydro-1,4-benzodioxin-6-yl)-7-[(3S,5S)-3,5-dimethylpiperazin-1-yl]-2-methoxy-1,3-benzothiazole-4-carboxamide], the figures for the AC50 in experiment [1] and in experiment [5] were over 10000 nM and 1000 to 10000 nM, respectively. In addition, the IC50 in experiment [1], in experiment [3], in experiment [4] and in experiment [5] was 1000 to 10000 nM throughout. The GI50 in experiment [2] lay within 1000 to 10000 nM.
On to `COc1nc2c(C(=O)Nc3cc(C)c4nn(C)cc4c3OC)ccc(N3C[C@H](C)N[C@@H](C)C3)c2s1` [Compound 717, 7-[(3S,5S)-3,5-dimethylpiperazin-1-yl]-2-methoxy-N-(4-methoxy-2,7-dimethyl-indazol-5-yl)-1,3-benzothiazole-4-carboxamide], for which the AC50 in experiment [1] and in experiment [5] was over 10000 nM in each case. Besides, the IC50 is 1000 to 10000 nM in experiment [1], over 10000 nM in experiment [3], 1000 to 10000 nM in experiment [4] and over 10000 nM in experiment [5]. For the same compound, in experiment [2], the GI50 lay in the range of 1000 to 10000 nM.
Regarding `COc1nc2c(C(=O)Nc3cc(C)c4nn(C)cc4c3)ccc(N3C[C@H](C)N[C@@H](C)C3)c2s1` [Compound 718, N-(2,7-dimethylindazol-5-yl)-7-[(3S,5S)-3,5-dimethylpiperazin-1-yl]-2-methoxy-1,3-benzothiazole-4-carboxamide], the values for the AC50 in experiment [1] and in experiment [5] were 1000 to 10000 nM and under 100 nM, respectively. Moreover, the half-inhibitory concentration (IC50) in experiment [1] was 1000 to 10000 nM; in experiment [3] it was under 100 nM; in experiment [4], 1000 to 10000 nM; in experiment [5] it was under 100 nM. In addition, the GI50 in experiment [2] is under 100 nM.
Regarding `COc1nc2c(C(=O)Nc3cc(F)c4nn(C)cc4c3)ccc(N3C[C@@H](C)N[C@H](C)C3)c2s1` [Compound 719, 7-[(3R,5R)-3,5-dimethylpiperazin-1-yl]-N-(7-fluoro-2-methyl-indazol-5-yl)-2-methoxy-1,3-benzothiazole-4-carboxamide], the AC50 is 1000 to 10000 nM in experiment [1] and under 100 nM in experiment [5]. Also, the IC50 in experiment [1] was 1000 to 10000 nM; in experiment [3] it was under 100 nM; in experiment [4] it was 1000 to 10000 nM; in experiment [5], under 100 nM. In experiment [2], the GI50 lay within 100 to 1000 nM.
`COc1nc2c(C(=O)Nc3cc(F)c4nn(C)cc4c3)ccc(N3C[C@@H](C)N[C@@H](C)C3)c2s1` [Compound 720]: the AC50 in experiment [1] is 100 to 1000 nM; in experiment [5] it was under 100 nM. Moreover, the IC50 in experiment [1] was 100 to 1000 nM; in experiment [3], under 100 nM; in experiment [4] it was 100 to 1000 nM; in experiment [5] it was under 100 nM. In experiment [2], the GI50 is under 100 nM.
Take `Cc1cn2cc(NC(=O)c3ccc(N4CCC(NC5CC5)CC4)c4cn(C)nc34)nc2c(CC2CCOC2)n1` (stereo not shown) [Compound 722, 4-[4-(cyclopropylamino)-1-piperidyl]-2-methyl-N-[6-methyl-8-(tetrahydrofuran-3-ylmethyl)imidazo[1,2-a]pyrazin-2-yl]indazole-7-carboxamide 2,2,2-trifluoroacetate]: the AC50 in experiment [1] and in experiment [5] was over 10000 nM each time. The IC50 in experiment [1], in experiment [3], in experiment [4] and in experiment [5] was over 10000 nM throughout. Further, the GI50 in experiment [2] lay within 1000 to 10000 nM.
Turning to `CCNC1CCN(c2cc(Br)c(C(=O)Nc3cn4cc(C)nc4c(F)c3OC)c3nn(C)cc23)CC1` [Compound 723], the AC50 is 100 to 1000 nM in experiment [1] and under 100 nM in experiment [5]. The IC50 is 100 to 1000 nM in experiment [1], under 100 nM in experiment [3], 100 to 1000 nM in experiment [4] and under 100 nM in experiment [5]. Moreover, the GI50 in experiment [2] lay within 100 to 1000 nM.
Regarding `CC(=O)Nc1nc2c(C(=O)Nc3cc(F)c4nn(C)cc4c3)ccc(N3C[C@H](C)N[C@@H](C)C3)c2s1` [Compound 724, 2-acetamido-7-[(3S,5S)-3,5-dimethylpiperazin-1-yl]-N-(7-fluoro-2-methyl-indazol-5-yl)-1,3-benzothiazole-4-carboxamide], the AC50 in experiment [1] is 1000 to 10000 nM; in experiment [5] it was under 100 nM. In addition, the IC50 in experiment [1] is 100 to 1000 nM; in experiment [3] it was under 100 nM; in experiment [4] it was 100 to 1000 nM; in experiment [5], under 100 nM. Also, the GI50 in experiment [2] was in the range of 1000 to 10000 nM.
For the compound `CC(=O)NCc1nc(C)cn2cc(NC(=O)c3ccc(N4CCC(NC5CC5)CC4)c4cn(C)nc34)nc12` [Compound 725, N-[8-(acetamidomethyl)-6-methyl-imidazo[1,2-a]pyrazin-2-yl]-4-[4-(cyclopropylamino)-1-piperidyl]-2-methyl-indazole-7-carboxamide], the AC50 in experiment [1] and in experiment [5] was over 10000 nM in each case. For the same compound, the IC50 in experiment [1], in experiment [3], in experiment [4] and in experiment [5] was over 10000 nM each time. The GI50 in experiment [2] is over 10000 nM.
For `COc1nc2c(C(=O)Nc3cc4cn(C)nc4c(C)c3O)ccc(N3C[C@H](C)N[C@@H](C)C3)c2s1` [Compound 726, 7-[(3S,5S)-3,5-dimethylpiperazin-1-yl]-N-(6-hydroxy-2,7-dimethyl-indazol-5-yl)-2-methoxy-1,3-benzothiazole-4-carboxamide], the concentration at half-maximal activity (AC50) was over 10000 nM in experiment [1] and 100 to 1000 nM in experiment [5]. In addition, the IC50 was over 10000 nM in experiment [1], 1000 to 10000 nM in experiment [3], over 10000 nM in experiment [4] and 1000 to 10000 nM in experiment [5]. For the same compound, the GI50 in experiment [2] was 1000 to 10000 nM.
As to `COc1nc2c(C(=O)Nc3ccc4nn(C)cc4c3F)ccc(N3C[C@H](C)N[C@@H](C)C3)c2s1` [Compound 727, 7-((3S,5S)-3,5-dimethylpiperazin-1-yl)-N-(4-fluoro-2-methyl-2H-indazol-5-yl)-2-methoxybenzo[d]thiazole-4-carboxamide 2,2,2-trifluoroacetate], the figures for the AC50 in experiment [1] and in experiment [5] were 100 to 1000 nM and under 100 nM, respectively. Moreover, the IC50 is 100 to 1000 nM in experiment [1], under 100 nM in experiment [3], 100 to 1000 nM in experiment [4] and under 100 nM in experiment [5]. Moreover, in experiment [2], the GI50 is under 100 nM.
Regarding `COc1nc2c(C(=O)Nc3cc4cn(C)nc4cc3O)ccc(N3C[C@H](C)N[C@@H](C)C3)c2s1` [Compound 728, 7-[(3S,5S)-3,5-dimethylpiperazin-1-yl]-N-(6-hydroxy-2-methyl-indazol-5-yl)-2-methoxy-1,3-benzothiazole-4-carboxamide], the AC50 in experiment [1] is over 10000 nM; in experiment [5] it was 100 to 1000 nM. Also, the IC50 was over 10000 nM in experiment [1], 100 to 1000 nM in experiment [3], over 10000 nM in experiment [4] and 100 to 1000 nM in experiment [5]. The GI50 in experiment [2] was in the range of 1000 to 10000 nM.
As for `COc1nc2c(C(=O)Nc3ccc4nn(C)cc4c3OC)ccc(N3C[C@H](C)N[C@@H](C)C3)c2s1` [Compound 729, 7-[(3S,5S)-3,5-dimethylpiperazin-1-yl]-2-methoxy-N-(4-methoxy-2-methyl-indazol-5-yl)-1,3-benzothiazole-4-carboxamide], the AC50 in experiment [1] and in experiment [5] was over 10000 nM in each case. Besides, the IC50 in experiment [1] is 1000 to 10000 nM; in experiment [3] it was over 10000 nM; in experiment [4] it was 1000 to 10000 nM; in experiment [5], over 10000 nM. For the same compound, in experiment [2], the GI50 fell in the range of 1000 to 10000 nM.

By AC50 is commonly meant the midpoint of the concentration-response curve, whichever way the signal moves. As a reminder, the IC50 is the point on the concentration scale where inhibition reaches its midpoint. Usually GI50 stands for the concentration that inhibits growth by half.
